Source: patent US20240352070A1, “NOVEL CATHEPSIN INHIBITORS” (Ecole Polytechnique Federale de Lausanne (EPFL), priority 2021, published 2024)
Numbered stars: 1 amine (or outer) side, 2 acyl side, 3 side chain; on linkers, the order of the positions; unused ones are H or OH. Square brackets hold non-standard residues; d marks the D form. Peptide text beside a SMILES is read from it. Trp(3a,7a-dihydro) = N[C@@H](CC1=CNC2C=CC=CC12)C(=O)O; Butenoyl(2E,4-amino) = O=C(/C=C/CN[*:1])[*:2]; Dap(N3) = [N-]=[N+]=NC[C@H](N)C(=O)O; Pra = C#CC[C@H](N)C(=O)O

Tests used:
CTSS in WSU-DLCL2 cells = test: CD74 accumulation assay in WSU-DLCL2 cells; format: cell-based, human; conditions: 48 hours, compared to PBS or antibody mixed to C10 in absence of linker
Experimental: (§1) FIG. 7. A-B CD74 accumulation after 48 hours-long anti-CD22 APeC treatment in WSU cells (A) and Raji cells (B). C-D CD74 accumulation after 48 hours-long anti-CD79 APeC treatment in WSU cells (C) and Raji cells (D). Single-cell fluorescence was measured by flow cytometry. CTSS inhibitor Petesicatib was used as positive control.
(§2) CD74 accumulation assay for efficacy assessment. To test the efficacy of our APeCs, 2×10^5 WSU-DLCL2 or Raji cells were incubated for two days with 300 or 500 ug/ml of APeC, in RPMI 1640 medium (ThermoFisher Scientific) supplemented with 10% FBS and 1% Penicillin-Streptomycin (ThermoFisher Scientific, cat. no. 15140122). After the first 24 h treatment, the cells were washed and resuspended in fresh APeC at the same treatment concentration. As negative controls, the same number of cells was either treated with PBS or with 300 ug/ml of the corresponding antibody previously incubated with C10 inhibitor in absence of DBCO-maleimide linker. […] Cells were then stained with anti-human CD74 antibody (BioLegend, cat. no. 357604) and fluorescence was measured by flow cytometry using BD LSRFortessa instrument (BD Biosciences). […] The gel was analysed by scanning in-gel fluorescence on a Typhoon Trio flat-bed laser scanner (GE Healthcare), and protein loading was confirmed by staining with Coomassie® Brilliant Blue R-250 (Schmidt GmbH). […]

[1] = target: T1, CTSS in primary human B-cells (Homo sapiens, UniProt P25774); test: qABP assay on primary human B-cells; format: cell-based; conditions: 2 different donors
T1 construct: endogenous in cells; host or cells: primary human B-cells (2 donors)
T1 sequence (P25774 115-331): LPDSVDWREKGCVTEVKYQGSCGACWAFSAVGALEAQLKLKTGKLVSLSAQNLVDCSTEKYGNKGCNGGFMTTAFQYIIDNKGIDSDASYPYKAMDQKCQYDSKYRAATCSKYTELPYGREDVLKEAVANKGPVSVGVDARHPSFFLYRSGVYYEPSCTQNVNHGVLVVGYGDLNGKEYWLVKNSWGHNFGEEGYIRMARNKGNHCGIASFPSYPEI
From the text: FIG. 11. Output of quenched activity-based probe (qABP) assay on primary human B-cells. The presence of a dark band at a precise molecular weight indicates to the detection of a strong activity of the corresponding cathepsin. Absence of a band means complete cathepsin inhibition. APeC=antibody-peptide conjugate. ab=antibody.

CTSS in Raji cells = test: CD74 accumulation assay in Raji cells; format: cell-based, human; conditions: 48 hours, compared to PBS or antibody mixed to C10 in absence of linker
Experimental: as §1, §2

cathepsin B (CTSB) = target: T2, cathepsin B (CTSB) (Homo sapiens, UniProt P07858); test: Specificity assay: FRET assay for CTSB activity; format: biochemical
T2 construct: purchased RndSystems
Experimental: (§3) Specificity assay. […] First, we used specific conditions to activate the enzymes. CTSB was diluted in a specific activation buffer (MES 25 mM, DTT 5 mM, pH 5) at 10 ug/ml, incubated at 37° C. for 2 h and then diluted to 1 ug/ml in assay buffer (MES 25 mM, pH 5) for the FRET assay. CTSH was diluted in a different activation buffer (MES 50 mM, CaCl2) 10 mM, NaCl 150 mM, pH 6.5) at 200 ug/ml. In addition, as co-stimulatory activator we used thermolysin diluted at 100 ug/ml in activation buffer and then mixed with an equal volume of the diluted CTSH. The solution was incubated for 1 h at room temperature and then we added 2 mM Phosphoramidon diluted in assay buffer (MES 50 mM, pH 6.5) and we incubated the mix for 10 minutes at room temperature. Lastly, we added an equal volume of assay buffer containing 20 mM DTT and incubated the solution for 5 minutes at room temperature. For the FRET assay, we diluted both CTSH, and CTSB at 1 ug/ml in their specific assay buffer and incubated them with a specific substrate. We used as substrate KPPKPVSD in CTSB FRET assays and KLRMKLPKP in CTSH FRET assays and we tested two doses of our P3 inhibitor (20 uM and 50 uM). Fluorescence emission was measured with SpectraMax iD3 (Molecular Devices) in kinetic mode over three hours (excitation: 330 nm, emission: 390 nm).

CTSS Y132D = target: T3, CTSS Y132D (Homo sapiens, UniProt P25774, Y132D); test: FRET assay with mutated CTSS Y132D; format: biochemical
T3 construct: made in house; host or cells: HEK293
T3 sequence (P25774 115-331 Y132D): as the sequence (P25774 115-331) above, with Y18D counted along it
From the text: (§4) Cathepsins protein expression and purification. For CTSS purification, the human CTSS sequence depleted of the lysosomal localization signal (amino acids 17 to 331) was amplified from pLVX plasmids expressing WT or Y132D CTSS using the following primers: […]
(§5) The PCR products were digested using Agel and Kpn1 restriction enzymes (NEB, cat #R3552S and #R3142S), then cloned in pHLsec plasmids carrying a secretion signal at the N-terminal of the MCS and a His-tag sequence at the C-terminal of the MCS. pHLsec-CTSS plasmids were transfected into HEK293 cells with PEI (polyethyleneimine) in presence of VPA (valproic acid). Proteins were purified from the supernatant using a 5 ml His-Trap FF column on an ÄKTA pure system (GE healthcare). Bound proteins were eluted using a 300 mM imidazole solution. Concentrated proteins were further purified by size exclusion chromatography on a HiLoad® 16/600 Superdex® 75 pg column (GE Healthcare) using PBS as mobile phase. Purified proteins were quantified by Nanodrop, diluted in a buffer containing 12.5 mM MES, 75 mM NaCl and 50% glycerol at ph 6.5 and stored at −20° C. Purified CTSB and CTSH were purchased from RndSystems.
FRET (Fluorescence Resonance Energy Transfer) assay to test CTSS activity. For FRET experiments, CTSS-His was diluted to 10 μg/mL in assay buffer (50 mM NaOAc, 5 mM DTT, 250 mM NaCl), at pH 4.5 and incubated at 37° C. for 90 minutes to allow auto-activation. The protein was then diluted to 0.5 ng/ul in assay buffer and plated in 96-well plates (50 ul/well). […] The peptide was added to the activated CTSS (50 ul/well) and fluorescent emission (MCA) was measured with SpectraMax iD3 (Molecular Devices) in kinetic mode for three hours (excitation: 330 nm, emission: 390 nm).
It was recently reported that 5.7% of lymphoma patients harbour a specific gain of function mutation changing the tyrosine 132 in aspartate (Y132D) or asparagine (Y132N). […] This was measured through a FRET assay in which the inhibitor was incubated with CTSS Y132D. […]

CTSS wild-type = target: T4, CTSS wild-type (Homo sapiens, UniProt P25774); test: FRET assay to test CTSS activity (wild-type); format: biochemical
T4 construct: made in house; host or cells: HEK293
T4 sequence (P25774 115-331): as the sequence (P25774 115-331) above
From the text: as §4
as §5, with “Purified CTSB and CTSH were purchased from RndSystems.” left out
FRET (Fluorescence Resonance Energy Transfer) assay to test CTSS activity. […] The peptide was added to the activated CTSS (50 ul/well) and fluorescent emission (MCA) was measured with SpectraMax iD3 (Molecular Devices) in kinetic mode for three hours (excitation: 330 nm, emission: 390 nm). […]

WSU-DLCL2 cells = test: Internalization assay by flow cytometry; format: cell-based; conditions: 100 ug/ml
Experimental: FIG. 6. A-B Results of internalization assay performed by incubating WSU-DLCL2 cells with the Epr-AF488 antibody for 3 hours at 37° C. (A) or 4° C. (B). Single-cell fluorescence was measured by flow cytometry.
Internalization assay. To test the internalization of the conjugated Epratuzumab antibody, 2×10^5 WSU-DLCL2 cells were incubated at 37° C. for 3 hours with 100 ug/ml of Epr-AF488 in PBS. As negative control, the same number of cells was incubated with 100 ug/ml of Epratuzumab previously incubated with AF488 dye in absence of DBCO-maleimide linker. Each experimental condition was tested in duplicates. Cells were then washed 3 times with PBS and 1 ul of anti-AF488 quencher antibody (ThermoFisher Scientific, A-11094) was added to half of the samples. Samples' fluorescence was measured by flow cytometry using Millipore Guava EasyCyte HT instrument (MilliporeSigma).

CTSB in MCF-7 cells = target: T5, CTSB in MCF-7 cells (Homo sapiens, UniProt P07858); test: Quenched activity-based probe (qABP) assay in MCF-7 cells; format: cell-based; conditions: 16 hours, 500 ug/ml APeC, compared to PBS or antibody mixed to C10 without linker
T5 construct: endogenous in cells; host or cells: MCF-7
Experimental: FIG. 8. Output of quenched activity-based probe (qABP) assay. The presence of a dark band corresponds to the detection of a strong activity of CTSB. Absence of a band means complete CTSB inhibition. APeC=antibody-peptide conjugate. Ab=antibody.
as §2, with “linker. Each treatment condition was tested in duplicates.” for “linker.”

cathepsin H (CTSH) = target: T6, cathepsin H (CTSH) (Homo sapiens, UniProt P09668); test: Specificity assay: FRET assay for CTSH activity; format: biochemical; conditions: at 20 uM or 50 uM, 180 minutes
T6 construct: purchased RndSystems
T6 sequence (P09668 116-335 limits assumed, other chains not shown): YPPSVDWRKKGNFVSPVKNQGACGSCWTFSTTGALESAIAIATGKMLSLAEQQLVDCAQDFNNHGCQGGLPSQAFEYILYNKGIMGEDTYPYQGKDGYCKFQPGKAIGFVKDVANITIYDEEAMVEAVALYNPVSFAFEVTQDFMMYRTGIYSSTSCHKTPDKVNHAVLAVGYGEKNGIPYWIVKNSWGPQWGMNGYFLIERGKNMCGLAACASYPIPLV
Experimental: as §3

[2] = at 20 uM and at 50 uM, FRET, 180 minutes

Cn1cc(-c2ccc(S(=O)(=O)[C@@H]3C[C@@H](C(=O)NC4(C#N)CC4)N(C(=O)C4(C(F)(F)F)CC4)C3)c(C(F)(F)F)c2)cn1 [Petesicatib]
CD74 accumulation (CTSS in WSU-DLCL2 cells): lower than what we obtained with lower doses of our APeCs | CTSS inhibition (qABP band) [1]: comparable | CD74 accumulation (CTSS in Raji cells): lower than what we obtained with lower doses of our APeCs

CSCC[C@H](NC(=O)[C@H](CC1=CNC2C=CC=CC12)NC(=O)/C=C/CNC(=O)[C@H](Cc1ccc(O)cc1)NC(=O)[C@H](CCCNC(=N)N)NC(=O)[C@H](CCCNC(=N)N)NC(=O)[C@H](CCCCN)NC(=O)[C@H](CN=[N+]=[N-])NC(C)=O)C(=O)N[C@@H](CC1=CNC2C=CC=CC12)C(N)=O (some centres unmarked) [D5, KRRY(Y)WMW] (Ac-[Dap(N3)]KRRY[Butenoyl(2E,4-amino)][Trp(3a,7a-dihydro)]M[Trp(3a,7a-dihydro)]-NH2)
IC50 (cathepsin B (CTSB); dose-response, 50 minutes of incubation): 61.9 nM

CSCC[C@H](NC(=O)[C@H](CCCNC(=N)N)NC(=O)[C@H](Cc1c[nH]cn1)NC(=O)[C@H](CCCCN)NC(=O)[C@H](CN=[N+]=[N-])NC(C)=O)C(=O)NC/C=C/C(=O)N[C@H](C(=O)N[C@@H](CCSC)C(=O)N[C@@H](Cc1c[nH]c2ccccc12)C(N)=O)C(C)C [C10, KHRM(Y)VMW] (Ac-[Dap(N3)]KHRM[Butenoyl(2E,4-amino)]VMW-NH2)
inhibition at 0.5 µM (CTSS Y132D; at 500 nM, 50 minutes of incubation, read-out: reduction of CTSS Y132D activity (inhibition efficiency)): > 90% | reduction of CTSS Y132D activity (CTSS Y132D; tested at 50 nM, 50 minutes of incubation): more than 50% | IC50 (CTSS wild-type; FRET assay, dose-response, 50 minutes of incubation, wild-type CTSS): 49.3 nM

Epr-AF488: Epratuzumab antibody conjugated with AlexaFluor-488 azide-dye instead of C10
internalization by lymphoma cells (inaccessible to quencher antibody) (WSU-DLCL2 cells; 3 hours at 37° C.): internalized | binding to lymphoma cells (WSU-DLCL2 cells; 3 hours, flow cytometry): still able to bind lymphoma cells

CC(C)C[C@H](NC(=O)[C@H]1O[C@@H]1C(=O)O)C(=O)NCCCCN=C(N)N [E64]
residual CTSB activity (CTSB in MCF-7 cells): inhibited CTSB activity as expected

C#CC[C@H](NC(C)=O)C(=O)N[C@@H](CCCCN)C(=O)N[C@@H](CC(C)C)C(=O)N[C@@H](CCCNC(=N)N)C(=O)N[C@@H](CCSC)C(=O)NC/C=C/C(=O)N1CCC[C@H]1C(=O)N[C@@H](CCCCN)C(=O)N[C@@H](CC(=O)O)C(N)=O [P3, KLRM(Y)PKD] (Ac-[Pra]KLRM[Butenoyl(2E,4-amino)]PKD-NH2)
inhibition of mutant form of CTSS (Y132D) (CTSS Y132D; [2]): able to inhibit | inhibition of wild-type CTSS (CTSS wild-type; [2]): able to inhibit | inhibitory activity on CTSB (cathepsin B (CTSB)): some inhibitory activity | inhibition of CTSH (cathepsin H (CTSH)): not significantly inhibited
